Source: EPA's ToxRefDB 2

How the values were obtained:
rat [1] = details: Subchronic oral toxicity in rodents, other, Feed, dose end: 17 week, group: systemic
rat [2] = details: Multigenerational reproductive toxicity study, sprague dawley, Oral, Feed, dose end: 2 generation
rat [3] = details: Multigenerational reproductive toxicity study, sprague dawley, Oral, Feed, dose end: 3 generation
rat [4] = details: Multigenerational reproductive toxicity study, sprague dawley, Oral, Feed, dose end: 3 generation; remark: listed apart in the source
rat [5] = details: Sub-acute repeat dose toxicity, Sprague Dawley, Oral, Gavage/Intubation, dose end: 28 day
mouse = details: Subchronic oral toxicity in rodents, b6c3f1, Water, dose end: 13 week
rat [6] = details: Developmental neurotoxicity study, sprague dawley, Oral, Feed, dose end: 63 PND, group: cannot be grouped
guinea-pig = details: Subchronic dermal toxicity, hartley, Topical, dose end: 13 week, group: systemic, systemic / clinical chemistry / creatine phosphokinase / creatine phosphokinase + systemic / clinical chemistry / lactic acid dehydrogenase…
rat [7] = details: Prenatal developmental toxicity study, sprague dawley, Inhalation, Whole-Body, dose end: 15 GD
rat [8] = details: Subchronic oral toxicity in rodents, fischer, Water, dose end: 13 week
dog [9] = details: Subchronic oral toxicity in nonrodent, beagle, Capsule, dose end: 90 day, group: systemic
rabbit = details: Prenatal developmental toxicity study, new zealand white, Oral, Gavage/Intubation, dose end: 18 GD
dog [10] = details: Subchronic oral toxicity in nonrodent, beagle, Capsule, dose end: 90 day, group: systemic, systemic / pathology microscopic / liver / [other] + systemic / pathology microscopic / liver / hypertrophy + systemic / pathology …
rat [11] = details: Prenatal developmental toxicity study, sprague dawley, Oral, Gavage/Intubation, dose end: 15 GD
rat [12] = details: Subchronic oral toxicity in rodents, sprague dawley, Gavage/Intubation, dose end: 90 day, group: systemic, systemic / organ weight / liver / absolute + systemic / organ weight / liver / relative to body weight + systemic / pathology microscopic / …
[13] = systemic / in life observation / body weight / body weight gain + systemic / in life observation / food consumption / food consumption + …
[14] = group: offspring, systemic / hematology / leukocyte (wbc) count differential / leukocyte (wbc) + systemic / hematology / monocytes / monocytes
[15] = group: offspring, systemic / hematology / leukocyte (wbc) count differential / leukocyte (wbc) + systemic / in life observation / body weight / offspring (pup…
[16] = group: parental, systemic / hematology / leukocyte (wbc) count differential / leukocyte (wbc) + systemic / in life observation / body weight / body weight
[17] = group: offspring, developmental / developmental landmark / preputial separation / preputial separation + systemic / in life observation / body weight / …
[18] = group: offspring, systemic / in life observation / food consumption / food consumption + systemic / pathology microscopic / kidney / degeneration
[19] = group: parental, systemic / in life observation / food consumption / food consumption + systemic / organ weight / kidney / relative to body weight
[20] = group: parental, systemic / pathology gross / sperm measure / sperm morphology
[21] = group: reproductive, reproductive / offspring survival early / live fetuses / live fetuses
[22] = group: offspring, developmental / developmental landmark / vaginal opening / vaginal opening + systemic / in life observation / body weight / offspring (pup) …
[23] = group: parental, systemic / in life observation / body weight / body weight + systemic / organ weight / kidney / relative to body weight + systemic / organ …
[24] = group: parental, systemic / pathology microscopic / kidney / mineralization + systemic / pathology microscopic / kidney / cyst + systemic / pathology …
[25] = group: reproductive, reproductive / offspring survival early / litter size / litter size + reproductive / reproductive performance / estrous cycle / length + …
[26] = group: reproductive, reproductive / reproductive performance / gestational length / gestational length
[27] = group: maternal, reproductive / reproductive performance / estrous cycle / abnormal
[28] = group: systemic, systemic / clinical chemistry / glucose / glucose + systemic / clinical chemistry / luteinizing hormone (lh) / luteinizing hormone (lh) + …
[29] = group: systemic, systemic / organ weight / testes / absolute + systemic / organ weight / testes / relative to body weight + systemic / pathology gross / …
[30] = group: systemic, systemic / pathology gross / sperm measure / sperm count + systemic / pathology gross / sperm measure / sperm motility
[31] = reproductive / reproductive performance / resorptions / resorptions + systemic / in life observation / body weight / body weight gain + …
[32] = systemic / in life observation / body weight / fetal weight
[33] = group: developmental, developmental / developmental malformation / bone / short + developmental / developmental malformation / bone / wavy + developmental / …
[34] = group: developmental, developmental / developmental malformation / bone / wavy + developmental / developmental malformation / brain / dilated cerebral ventricle…
[35] = group: maternal, reproductive / reproductive performance / resorptions / resorptions
[36] = group: systemic, systemic / organ weight / thymus / absolute + systemic / organ weight / thymus / relative to body weight
[37] = systemic / pathology microscopic / liver / cytoplasmic alteration + systemic / pathology microscopic / liver / vacuolization
[38] = systemic / pathology microscopic / liver / cytoplasmic alteration + systemic / pathology microscopic / liver / vacuolization + systemic / …
[39] = group: developmental, developmental / developmental malformation / bone / misshapen
[40] = group: maternal, reproductive / reproductive performance / postimplantation loss / postimplantation loss + systemic / in life observation / body weight / …
[41] = group: developmental, systemic / in life observation / body weight / fetal weight
[42] = group: maternal, systemic / in life observation / clinical signs / respiration (rales) + systemic / in life observation / clinical signs / salivation + …

## CC(C)CCCCCCc1ccc(O)cc1 [4-Nonylphenol, branched]
Rat [1]; systemic / in life observation / body weight / body weight
  LEL: 50 mg/kg/day
Rat [1]; systemic / in life observation / body weight / body weight + systemic / in life observation / body weight / body weight gain + systemic / …
  NEL: 15 mg/kg/day
Rat [1]; [13]
  LOAEL: > 150 mg/kg/day
  NOAEL: ≥ 150 mg/kg/day
Rat [2]; [14]
  LEL: 1.25 mg/kg/day
  NEL: < 1.25 mg/kg/day
Rat [2]; [15]
  LOAEL: > 100 mg/kg/day
  NOAEL: ≥ 100 mg/kg/day
Rat [2]; [16]
  LEL: 100 mg/kg/day
  LOAEL: > 100 mg/kg/day
  NEL: 25 mg/kg/day
  NOAEL: ≥ 100 mg/kg/day
Rat [3]; [17]
  LOAEL: > 171 mg/kg/day
  NOAEL: ≥ 171 mg/kg/day
Rat [3]; [18]
  LEL: 18 mg/kg/day
  NEL: < 18 mg/kg/day
Rat [3]; [19]
  LOAEL: > 122 mg/kg/day
  NOAEL: ≥ 122 mg/kg/day
Rat [3]; [20]
  LEL: 18 mg/kg/day
  NEL: < 18 mg/kg/day
Rat [3]; [21]
  LEL: 171 mg/kg/day
  LOAEL: > 171 mg/kg/day
  NEL: 53 mg/kg/day
  NOAEL: ≥ 171 mg/kg/day
Rat [4]; group: offspring, developmental / developmental landmark / vaginal opening / vaginal opening
  NEL: 10 mg/kg/day
Rat [4]; [22]
  LEL: 32.5 mg/kg/day
  LOAEL: > 100 mg/kg/day
  NOAEL: ≥ 100 mg/kg/day
Rat [4]; [23]
  LOAEL: > 100 mg/kg/day
  NOAEL: ≥ 100 mg/kg/day
Rat [4]; [24]
  LEL: 10 mg/kg/day
  NEL: < 10 mg/kg/day
Rat [4]; [25]
  LOAEL: > 100 mg/kg/day
  NOAEL: ≥ 100 mg/kg/day
Rat [4]; [26]
  LEL: 10 mg/kg/day
  NEL: < 10 mg/kg/day
Rat [5]; [27]
  LEL: 250 mg/kg/day
  LOAEL: > 250 mg/kg/day
  NEL: 50 mg/kg/day
  NOAEL: ≥ 250 mg/kg/day
Rat [5]; [28]
  LEL: 50 mg/kg/day
  LOAEL: > 250 mg/kg/day
  NEL: 10 mg/kg/day
  NOAEL: ≥ 250 mg/kg/day

## COCCO [2-Methoxyethanol]
mouse; [27]
  LEL: 492 mg/kg/day
  LOAEL: > 1840 mg/kg/day
  NEL: < 492 mg/kg/day
  NOAEL: ≥ 1840 mg/kg/day
mouse; [29]
  LOAEL: 529 mg/kg/day
  NOAEL: 295 mg/kg/day
mouse; [30]
  LEL: 295 mg/kg/day
  NEL: < 295 mg/kg/day
Rat [6]; [31]
  LOAEL: > 620 mg/kg/day
  NOAEL: ≥ 620 mg/kg/day
Rat [6]; [32]
  LEL: 16 mg/kg/day
  NEL: < 16 mg/kg/day
guinea-pig
  LEL: 1000 mg/kg/day
  LOAEL: > 1000 mg/kg/day
  NEL: < 1000 mg/kg/day
  NOAEL: ≥ 1000 mg/kg/day
Rat [7]; [33]
  LOAEL: > 200 ppm
  NOAEL: ≥ 200 ppm
Rat [7]; [34]
  LEL: 50 ppm
  NEL: < 50 ppm
Rat [7]; [35]
  LEL: 50 ppm
  LOAEL: > 200 ppm
  NEL: < 50 ppm
  NOAEL: ≥ 200 ppm
Rat [8]; [27]
  LEL: 135 mg/kg/day
  LOAEL: > 785 mg/kg/day
  NEL: 70 mg/kg/day
  NOAEL: ≥ 785 mg/kg/day
Rat [8]; group: systemic, systemic / in life observation / body weight / body weight + systemic / pathology microscopic / spleen / fibrosis
  LOAEL: 135 mg/kg/day
Rat [8]; group: systemic, systemic / in life observation / body weight / body weight + systemic / pathology microscopic / spleen / fibrosis + systemic / clinical …
  NOAEL: 70 mg/kg/day
Rat [8]; [36]
  LEL: 70 mg/kg/day
  NEL: < 70 mg/kg/day

## CCCCCC(C)(CC)C(=O)NC (centres undefined) [N-Methylneodecanamide]
Dog [9]; [37]
  LOAEL: 13.5 mg/kg/day
  NOAEL: < 13.5 mg/kg/day
Dog [9]; [38]
  LEL: 13.5 mg/kg/day
  NEL: < 13.5 mg/kg/day
rabbit; [39]
  LEL: 200 mg/kg/day
  LOAEL: 200 mg/kg/day
  NEL: 100 mg/kg/day
  NOAEL: 100 mg/kg/day
rabbit; [40]
  LEL: 200 mg/kg/day
  LOAEL: 200 mg/kg/day
  NEL: 100 mg/kg/day
  NOAEL: 100 mg/kg/day
Dog [10]
  LEL: 4.52 mg/kg/day
  LOAEL: 4.52 mg/kg/day
  NEL: 1.35 mg/kg/day
  NOAEL: 1.35 mg/kg/day
Rat [11]; [41]
  LEL: 400 mg/kg/day
  LOAEL: 400 mg/kg/day
  NEL: 125 mg/kg/day
  NOAEL: 125 mg/kg/day
Rat [11]; [42]
  LEL: 125 mg/kg/day
  LOAEL: 125 mg/kg/day
  NEL: 40 mg/kg/day
  NOAEL: 40 mg/kg/day
Rat [12]
  LEL: 30 mg/kg/day
  LOAEL: 30 mg/kg/day
  NEL: 3 mg/kg/day
  NOAEL: 3 mg/kg/day
